From PubChem BioAssay AID179 (DTP/NCI, 2004) come the findings set out here.

For the test, the system named is CEM cells HIV-1 protection, formazan growth assay. In words: NCI AIDS Antiviral Assay. To be noted: for IC50: measured here: growth of uninfected CEM cells. In outline:
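Category rules: moderately active means at least 50% protection on retest, and confirmed active means 100% protection reproducibly. The underlying data came from a formazan growth assay in HIV-1-infected CEM cells.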

One may read the EC50 as the concentration needed to bring the measured effect to its halfway point. By IC50 is commonly meant the midpoint of a concentration-inhibition curve. Lower therefore signals greater potency in that assay.

Activity calls are given as the source filed them.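 How the source made its calls: active means compounds giving half or more protection of infected cells from virus-caused growth loss, again on retest; inactive means the rest.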

Regarding `COc1ccc2nc(-c3cccs3)cc(C(O)CN3CCSCC3)c2c1` (configuration not stated), the result was inactive. Regarding `CCOP(=O)(OCC)C1CC(O)C(=O)N1` (configuration not stated), the EC50 is greater than 200 µM and the half-inhibitory concentration (IC50) is greater than 200 µM.

`C=CCCCN1C(=O)CCCC1=O`: the result was inactive. As to `CCCCS(=O)(=O)O`, the EC50 is greater than 200 µM and the IC50 was greater than 200 µM. Regarding `c1ccc(-c2c3ccccc3[o+]c3ccccc23)cc1`, the EC50 was greater than 200 µM and the IC50 is 33.1 µM. For `Cc1cn(C(C)OCCN(OC(=O)Oc2ccccc2)C(=O)Oc2ccccc2)c(=O)[nH]c1=O` (configuration not stated), in that order: greater than 200 µM and greater than 200 µM. As for `CC(=O)NC1C(OCc2ccccc2)OC(COC(=O)CCCCCCCCCCNC(=O)c2cccc3c(=O)c4ccccc4[nH]c23)C(O)C1OC(C)C(=O)NC(C)C(=O)NC(CCC(N)=O)C(N)=O` (configuration not stated), the EC50 is greater than 7.41 µM and the IC50 was greater than 7.41 µM.

Consider `O=c1[nH]c2cccccc-2c1-c1nc2ccccc2[nH]1`, for which the EC50 was greater than 138 µM and the IC50 was greater than 138 µM. In the case of `COc1cc2ccc(C(=O)O)cc2cc1OC`, the result was inactive. For `CCOC(=O)CCC(NC(=O)c1ccc(Nc2cnc3cc(C(F)(F)F)ccc3n2)cc1)C(=O)OCC` (configuration not stated), the EC50 is greater than 200 µM and the IC50 was determined as 191 µM. For `COc1ccccc1-c1n[nH]c(-c2ccccc2O)n1`, in that order: greater than 200 µM and greater than 200 µM.

Consider `CC1CCC(C(C)C)C(OC2(c3ccccc3)OC(=O)c3ccccc32)C1` (configuration not stated), for which the result was inactive.

With `NC(=O)C(N)c1ccccc1` (configuration not stated), the EC50 is greater than 200 µM and the IC50 was greater than 200 µM. As for `COc1ccc(-n2c(=O)c3[nH]cnc3n(-c3ccc(OC)cc3)c2=S)cc1`, the EC50 was greater than 200 µM and the IC50 was greater than 200 µM. Take `C=C1C(=O)OC2C[C@H](C)C3CC(=O)C(C)=C3CC12` (some centres not stated): the EC50 is greater than 380 µM and the half-inhibitory concentration (IC50) was 6.61 µM. For `Cc1cc2occ(-c3ccc(Cl)cc3)c2c(=O)o1`, in that order: greater than 20 µM and greater than 20 µM. As to `CC(=O)c1cccc(NC(=O)C(=O)C(C2OC(=O)c3ccccc32)[N+](=O)[O-])c1` (configuration not stated), the EC50 is greater than 468 µM and the IC50 was greater than 468 µM. Take `COc1c(OC2OC(CO)C(O)C(O)C2O)cc2c(c1OC)-c1ccc(OC)c(=O)cc1[C@@H](NC(C)=O)CC2` (some centres not stated): the result was inactive. For `C=C(C)[C@@H]1CC[C@]2(CO)CC[C@]3(C)[C@H](CC[C@@H]4[C@@]5(C)CC[C@H](O)C(C)(C)[C@@H]5CC[C@]43C)[C@@H]12`, the EC50 is 41.7 µM and the half-inhibitory concentration (IC50) came out at 69.2 µM.

Consider `COc1cc(N(CCC#N)CCC#N)ccc1/C(N=Nc1ccc(Cl)cc1)=N/NC(=O)c1cc(Br)ccc1O`, for which the EC50 is greater than 100 µM and the IC50 is 17.4 µM. For `COc1cccc(OC)c1NC(=O)C(=O)Nn1c(NNC(=O)c2ccncc2)nc2ccccc2c1=O`, the EC50 was greater than 501 µM and the IC50 was greater than 501 µM. `CC(C)(C)OC(=O)NC(CSSCC(NC(=O)OC(C)(C)C)C(=O)O)C(=O)O` (configuration not stated): the EC50 is greater than 200 µM and the 50% inhibitory concentration (IC50) is greater than 200 µM. As to `O=[P+](O)c1ccsc1`, the outcome was inactive. As for `COc1ccc(C(=O)c2ccccc2)c(O)c1`, the EC50 is greater than 200 µM and the 50% inhibitory concentration (IC50) is greater than 200 µM. `CCCCCCCCCCCC(=O)OCCOCCOCCOCCOCCOCc1ccccc1`: the outcome was inactive. Take `COc1ccc(-[n+]2nc(S(=O)(=O)O)c(/C=C/c3ccc(N(C)C)cc3)cc2C#N)cc1`: the EC50 is greater than 151 µM and the IC50 is greater than 151 µM.

Turning to `COc1cc2cc(C(=O)N3CC(CCl)c4ccc(NO)cc43)[nH]c2c(OC)c1OC` (configuration not stated), the EC50 is greater than 2 µM and the IC50 was 1.82 µM. `COC(=O)/C=C(/CNC(=O)OCc1ccccc1)c1ccccc1`: the outcome was inactive. As to `Cc1c(C2Cc3ccccc3N2)c2ccccc2n1C` (configuration not stated), the EC50 is greater than 603 µM and the half-inhibitory concentration (IC50) turned out to be 195 µM. For `Cc1cc([N+](=O)[O-])c(C)c2c1[nH]c1ccc(Cl)cc12`, in that order: greater than 10 µM and greater than 10 µM. For the compound `CSC1=Nc2ccccc2-c2nc3ccccc3cc2C1`, the outcome was inactive. As for `CC(=O)OC1C(OC(C)=O)[C@@]2(C)C(C(OC(C)=O)[C@@H]3C2C(C)C=C2OC(=O)[C@@](C)(O)[C@@]23C)[C@H]2C1[C@]1(C)C(C[C@@H]3O[C@@H]3C1OC(C)=O)C(=O)[C@@H]2O` (some centres not stated), the outcome was inactive. Take `O=C1NC2C(O)CCCCC2C12CCCCC2` (configuration not stated): the result was inactive. For the compound `O=c1[nH]nc(Cc2ccccc2)n1O`, the EC50 was greater than 200 µM and the IC50 was greater than 200 µM. Regarding `CC1(C)COC(C23C4C5C2C2C3C4C52I)=N1` (configuration not stated), the EC50 is greater than 79.4 µM and the IC50 was greater than 79.4 µM.

Consider `CCOC(=O)N1CC2(C(=O)OC)C=CC1C(C(=O)OC)C2` (configuration not stated), for which the EC50 was greater than 200 µM and the concentration for half-maximal inhibition (IC50) is greater than 200 µM. For the compound `Cc1noc(C)c1N=Nc1ccc2nonc2c1N`, the EC50 was greater than 200 µM and the half-inhibitory concentration (IC50) is greater than 200 µM. Take `Cc1nc2cc(Cl)cc(N)c2nc1C`: the EC50 is greater than 631 µM and the IC50 was 295 µM. In the case of `N=C([Se])c1ncn(C2OC(CO)C(O)C2O)c1N` (configuration not stated), the EC50 is greater than 389 µM and the IC50 was determined as 30.2 µM. As for `Nc1ccccc1Sc1ccc(Cl)cc1`, the result was inactive. With `O=C1N=NC(=O)c2ccccc21`, the EC50 was greater than 200 µM and the IC50 is greater than 200 µM.

For `N#CC1(C#N)C(C#N)(C#N)C12CCCC2`, the EC50 is greater than 20 µM and the IC50 worked out at 10.5 µM. For `C/C(CC(=O)Nc1ccc(Cl)cc1)=N\NC(N)=S`, in that order: greater than 871 µM and 123 µM. For `O=c1[nH]c(=O)n(C2CC(O)C(CO)O2)cc1OC/C=C/Cc1ccccc1` (configuration not stated), in that order: greater than 200 µM and greater than 200 µM. Consider `N#CCC(=O)Nn1c(CC#N)nnc1Cc1ccccc1`, for which the outcome was inactive. In the case of `Cc1ccc(Nc2[nH]c(=O)[nH]c(=O)c2C)cc1Cl`, the EC50 is greater than 200 µM and the IC50 was 158 µM.

As to `CCC(C)SC1SCC2C(=O)N(C)C3(CC3C)C(=O)OCC(NC(=O)c3nc4ccccc4cc3O)C(=O)NC(C)C(=O)N(C)C1C(=O)N(C)C1(CC1C)C(=O)OCC(NC(=O)c1nc3ccccc3cc1O)C(=O)NC(C)C(=O)N2C` (configuration not stated), the EC50 was greater than 0.02 µM and the concentration for half-maximal inhibition (IC50) came out at 8.71e-05 µM. For `COc1cc2c(c(OC)c1OC)-c1cccc(=O)cc1C(NC(C)=O)CC2` (configuration not stated), in that order: greater than 2 µM and 0.0389 µM.

As for `CCCCOP(=O)(OCCCC)C(NS(=O)(=O)c1ccccc1)(C(=O)OCC)C(F)(F)F` (configuration not stated), the EC50 is greater than 200 µM and the IC50 was determined as 19.1 µM.

Regarding `Nc1nc2c(ncn2C2C=CC(CO)CC2)c(=O)[nH]1` (configuration not stated), the EC50 is greater than 200 µM and the IC50 is greater than 200 µM. `CC(C)Sc1nncc(/C(N)=N/O)n1`: the EC50 was greater than 200 µM and the IC50 is greater than 200 µM. For `Clc1cccc(N2CCN(CCCN3CCc4c([nH]c5ccccc45)C3c3cccnc3)CC2)c1` (configuration not stated), the EC50 was greater than 5.37 µM and the IC50 is greater than 5.37 µM. Consider `COCOc1c(C(OCOC)c2cnc(Sc3ccccc3)n2C)ccc(OC)c1OC` (configuration not stated), for which the EC50 is greater than 200 µM and the concentration for half-maximal inhibition (IC50) is 110 µM. On to `CCC[CH2][Sn]1([CH2]CCC)[S]CC[N]1S(=O)(=O)c1ccc(C)cc1`, for which the EC50 is greater than 200 µM and the half-inhibitory concentration (IC50) amounted to 0.0776 µM.

Take `CN(C(=O)C12C3C4C1(C(=O)O)C1C2C3(C(=O)O)C41C(=O)N(C)C(C)(C)C)C(C)(C)C` (configuration not stated): the EC50 was greater than 17.4 µM and the IC50 is greater than 17.4 µM. For `O=c1c2c([nH]n1-c1ccccc1)-c1ccccc1CS2`, the EC50 is greater than 204 µM and the half-inhibitory concentration (IC50) stood at 135 µM.

With `O=[N+]([O-])c1cccc2nsnc12`, the EC50 was greater than 145 µM and the IC50 stood at 23.4 µM. For `CN(C)CCNC(=O)c1cc(NC(=O)c2cc(NC(=O)CC/C=C3/[C@@H]4CC[C@H]3N=N4)cn2C)cn1C`, in that order: greater than 200 µM and greater than 200 µM. For `Cc1cccc2c(=O)c3c(O)cc4c(c3n(C)c12)C=CC(C)(C)O4`, in that order: greater than 200 µM and 14.8 µM.

For `CC/C=C\C/C=C\C/C=C\CCCCCCCC(=O)NC(CCC(N)=O)C(=O)O` (configuration not stated), the EC50 is greater than 200 µM and the IC50 came out at 43.7 µM. For `O=C(Nc1ccccc1)N(C1=NCC(CI)S1)c1ccc(F)cc1F` (configuration not stated), in that order: greater than 200 µM and 25.1 µM. For `NC(=O)c1ncn(C/C=C/CO)c1N`, in that order: greater than 200 µM and greater than 200 µM. For `C[Si](C)(C)OC1c2[nH]c3ccccc3c2CN2C(=O)CCC12` (configuration not stated), in that order: greater than 200 µM and greater than 200 µM.

Turning to `COc1ccc2ccc3[nH]c4c(C)cnc(NCCCN(C)C)c4c3c2c1`, the EC50 was greater than 2 µM and the IC50 was found to be 0.331 µM. Take `CC1C(n2[nH]c(=O)n(C)c2=O)c2ccccc2-n2c(=O)n(C)c(=O)n21` (configuration not stated): the EC50 is greater than 64.6 µM and the IC50 is greater than 64.6 µM. For the compound `O=C(c1ccccc1)C1N(c2ccccc2)CCN1c1ccccc1`, the EC50 was greater than 200 µM and the half-maximal inhibitory concentration (IC50) was 21.9 µM. For `C/C=C/C=Nc1c(C#N)c2n(c1C(=O)Nc1ccc(Cl)cc1)CCC2`, in that order: greater than 50.1 µM and 23.4 µM. Consider `Cc1cc2c(=O)cc(-c3ccc(Cl)cc3)oc2c(C(=O)O)c1C`, for which the result was inactive.

With `CSC1=N/C(=C\c2ccc(C)cc2)C(=O)N1CN1CCOCC1`, the EC50 was greater than 200 µM and the half-maximal inhibitory concentration (IC50) worked out at 34.7 µM. For `Cc1cn([C@H]2C[C@H](N=[N+]=[N-])[C@@H](COC(=O)CCC(=O)OC3CN(Cc4ccccc4)C(=O)N(Cc4ccccc4)C3)O2)c(=O)[nH]c1=O`, in that order: 0.955 µM and 89.1 µM. For `N#C/C(=C\c1ccc(O)c(O)c1)C(=O)NCCCCCCNC(=O)/C(C#N)=C/c1ccc(O)c(O)c1`, in that order: greater than 200 µM and greater than 200 µM.

As to `COc1ccc(C2CC3(c4ccccc4)ON=C(c4ccccc4)N3c3ccccc3S2)cc1` (configuration not stated), the EC50 was greater than 200 µM and the half-maximal inhibitory concentration (IC50) is greater than 200 µM. Consider `C(=N\NC1=NCCN1)/c1cccc2cc3ccncc3nc12`, for which the EC50 was greater than 200 µM and the half-maximal inhibitory concentration (IC50) came out at 0.891 µM.
